# “And” between values parts separate entries of the source, which are not always exact repeats. Equal values may be shown once.
# How the values were obtained:
# [1] = target: mouse GLP-1 receptor (mouse) (UniProt O35659); assay: other; competition with radioligand, header printed as [125I]GIP(1-42)OH
# mouse GIP receptor [2] = target: T1, mouse GIP receptor (Mus musculus, UniProt Q0P543); assay: Gs recruitment (ligand-induced BRET), mouse GIPR; assay type: cell-based; set-up: expressed in transfected cells; details: HEK-293T, read-out: Gs recruitment Emax
# T1 sequence (Q0P543 19-460): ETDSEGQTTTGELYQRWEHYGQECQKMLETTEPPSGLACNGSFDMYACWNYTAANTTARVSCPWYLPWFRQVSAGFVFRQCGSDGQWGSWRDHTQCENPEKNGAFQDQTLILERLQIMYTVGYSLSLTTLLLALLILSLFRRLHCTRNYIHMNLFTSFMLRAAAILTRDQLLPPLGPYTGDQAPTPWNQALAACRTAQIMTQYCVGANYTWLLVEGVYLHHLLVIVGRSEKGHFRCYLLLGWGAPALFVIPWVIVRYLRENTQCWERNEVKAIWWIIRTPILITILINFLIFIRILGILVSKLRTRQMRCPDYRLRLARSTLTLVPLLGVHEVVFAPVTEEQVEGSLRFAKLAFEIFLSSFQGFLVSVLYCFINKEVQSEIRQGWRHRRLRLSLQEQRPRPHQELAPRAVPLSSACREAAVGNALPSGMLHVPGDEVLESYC
# Protocol: (§1) BRET measurements were taken every 1 min using a PHERAstar FS multi-mode microplate reader. Baseline measurements were taken after an initial 5 min incubation with coelenterazine-h or NanoGlo-containing HBSS, after which cells were treated with either a vehicle (PBS) or the respective ligands. Ligand-specific ratiometric BRET signals were normalized to the vehicle, producing the ‘ligand-induced BRET ratio’[46], followed by additional normalization to well-specific baseline readings. Ligand-induced measurements on the temporal scale are represented as the subsequent measurement after time point zero. Positive or negative incremental area under the curves (+iAUC, –iAUC) were calculated where noted. Concentration–response curves were generated by three-parameter logistic fitting in Prism 9.0.
# Mouse GLP-1R [3] = target: T2, Mouse GLP-1R (Mus musculus, UniProt O35659); assay: cAMP generation (Glosensor), mouse GLP-1R; assay type: cell-based
# T2 construct: expressed in transfected cells; host or cells: HEK293T, transient (Lipofectamine 2000)
# T2 sequence (O35659 22-463): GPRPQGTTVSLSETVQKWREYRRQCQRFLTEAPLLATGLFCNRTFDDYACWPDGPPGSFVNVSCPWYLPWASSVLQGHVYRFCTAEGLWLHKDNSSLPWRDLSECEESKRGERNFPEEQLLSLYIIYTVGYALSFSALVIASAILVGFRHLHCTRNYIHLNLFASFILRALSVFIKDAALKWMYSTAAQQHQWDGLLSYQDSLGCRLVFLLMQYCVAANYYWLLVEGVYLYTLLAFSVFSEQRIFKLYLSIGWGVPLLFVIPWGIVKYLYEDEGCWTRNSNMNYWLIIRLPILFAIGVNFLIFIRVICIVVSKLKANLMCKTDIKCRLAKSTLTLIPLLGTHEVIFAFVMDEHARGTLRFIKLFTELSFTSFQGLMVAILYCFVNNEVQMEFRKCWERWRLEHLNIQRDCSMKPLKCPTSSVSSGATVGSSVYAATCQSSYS
# Protocol: (§2) Methods for these assays have been previously described. In brief, for GTPγs binding, the potency of ligands to stimulate receptor-dependent elevation of the GTPγS-bound Gαs subunit was determined using membrane preparations from low-receptor-density receptor clonal cell lines. Reactions were incubated for 30 min at room temperature in white, clear-bottom microtiter plates, and per cent of the maximal response was calculated using control wells as a reference. Relative EC50 values were derived by nonlinear regression analysis using the per cent response versus the concentration of ligand and fitted to a four-parameter logistic equation using GraphPad Prism 7 software. For cAMP assays, kinetic cAMP assays were performed in low-density receptor cell clones transfected with the Glosensor 22 F vector (Promega). Cells were equilibrated for 5–20 min and then 20 μl of 10× ligand was added and a luminescence time course was collected. Ligand (10×) was titrated by manual serial dilution in DMSO followed by step-down into assay buffer.
# [4] = in vivo; cited from earlier work
# Excerpt: Tirzepatide is an agonist for both incretin receptors, engineered from the human GIP (hGIP) peptide sequence. It has an average half-life of approximately 5 days, enabling once-weekly dosing.
# mouse GIP receptor [5] = target: T1, mouse GIP receptor; assay: cAMP generation (Glosensor), mouse GIPR; assay type: cell-based; set-up: expressed in transfected cells; host or cells: low-receptor-density clonal cell lines; details: mouse GIPR, low-density receptor clones, Glosensor; mean (s.e.m., n); read-out: cAMP Emax
# Protocol: as §2
# Mouse GLP-1R [6] = target: T2, Mouse GLP-1R; assay: Gs recruitment (ligand-induced BRET), mouse GLP-1R; assay type: cell-based; details: mean (SEM, n)
# Protocol: as §1
# human islets = assay: Human islets, glucagon secretion with tirzepatide at 2.7 or 10 mM glucose ± alanine (Fig. 3d); assay type: cell-based
# Protocol: Human islets were obtained from both the Alberta Diabetes Institute and the Integrated Islet Distribution Program. All islets were obtained from consenting donors. Details for the general perifusion protocol have been previously described[21] and are similar to the mouse perifusion protocol. […] Each set of human islets consisted of n = 3 for each condition. These were averaged to generate a single data point (Fig. 2c). Insulin values were measured with a Lumit insulin immunoassay (Promega) using an EnVision plate reader (PerkinElmer). For the glucagon secretion experiments (Fig. 3), the average glucagon values were calculated during control (minutes 35–45) and stimulated (minutes 55–65) conditions. All peptides were used at 30 nM concentrations based on previous work[16]. Amino acids were used at concentrations of 3 mM based on previous work[11]. Glucagon was measured with a Lumit Glucagon Immunoassay Kit (cat. no. CS3037A02; Promega) using an EnVision plate reader (PerkinElmer). Somatostatin was measured with an ELISA assay (cat. no. FEK-060-14; Phoenix Pharmaceuticals). All data are expressed as the measured concentration relative to both flow rate and islet number (insulin, ng ml^–1 × (1/200 µl ml^–1) × (1/75 islets); glucagon, pM × (1/200 µl ml^–1) × (1/75 islets); somatostatin, pg ml^–1 × (1/200 µl ml^–1) × (1/75 islets))[49]. […]
# mouse GIP receptor [7] = target: T1, mouse GIP receptor; assay: [35S]GTPγS binding, mouse GIPR; assay type: biochemical; set-up: expressed in transfected cells; host or cells: low-receptor-density clonal cell lines
# Protocol: as §2, with “collected.” for “collected. Ligand (10×) was titrated by manual serial dilution in DMSO followed by step-down into assay buffer.”
compound,measurement,setting,value
TZP,Ki,[1],0.387 nM
"CC[C@H](C)[C@H](NC(=O)[C@H](CC(C)C)NC(=O)[C@H](Cc1c[nH]c2ccccc12)NC(=O)[C@H](CCC(N)=O)NC(=O)[C@@H](NC(=O)[C@H](Cc1ccccc1)NC(=O)[C@H](C)NC(=O)[C@H](CCCCNC(=O)COCCOCCNC(=O)COCCOCCNC(=O)CC[C@H](NC(=O)CCCCCCCCCCCCCCCCCCC(=O)O)C(=O)O)NC(=O)[C@H](CCC(N)=O)NC(=O)[C@H](C)NC(=O)[C@@H](NC(=O)[C@H](CCCCN)NC(=O)[C@H](CC(=O)O)NC(=O)[C@H](CC(C)C)NC(=O)C(C)(C)NC(=O)[C@@H](NC(=O)[C@H](CO)NC(=O)[C@H](Cc1ccc(O)cc1)NC(=O)[C@H](CC(=O)O)NC(=O)[C@H](CO)NC(=O)[C@@H](NC(=O)[C@H](Cc1ccccc1)NC(=O)[C@@H](NC(=O)CNC(=O)[C@H](CCC(=O)O)NC(=O)C(C)(C)NC(=O)[C@@H](N)Cc1ccc(O)cc1)[C@@H](C)O)[C@@H](C)O)[C@@H](C)CC)[C@@H](C)CC)C(C)C)C(=O)N[C@@H](C)C(=O)NCC(=O)NCC(=O)N1CCC[C@H]1C(=O)N[C@@H](CO)C(=O)N[C@@H](CO)C(=O)NCC(=O)N[C@@H](C)C(=O)N1CCC[C@H]1C(=O)N1CCC[C@H]1C(=O)N1CCC[C@H]1C(=O)N[C@@H](CO)C(N)=O [TZP, tirzepatide]",Emax,"mouse GIP receptor [2]; mouse GIPR, HEK293T BRET, mean (s.e.m., n)",72.6%
same,Emax,"Mouse GLP-1R [3]; HEK293, mouse GLP-1R HEK-293 cells, n = 6, read-out: Emax, mean of column (T-test Emax, cAMP)",95%
same,Emax,"Mouse GLP-1R [3]; HEK293, read-out: Arthmetic Mean Emax",95%
same,Emax,"Mouse GLP-1R [3]; Mouse GLP-1R, mean (n), read-out: cAMP EMAX",84%
same,Half-life,[4],approximately 5 days
same,Emax,mouse GIP receptor [5],103%
same,Emax,Mouse GLP-1R [6],35.6%
C[C@H](N)C(=O)O [Alanine],iAUC values (glucagon secretion),human islets,42.82 and 37.07 and 49.41 and 40.38 and 34.9 and 39.11
CC[C@H](C)[C@H](NC(=O)[C@H](CO)NC(=O)[C@H](Cc1ccc(O)cc1)NC(=O)[C@H](CC(=O)O)NC(=O)[C@H](CO)NC(=O)[C@@H](NC(=O)[C@H](Cc1ccccc1)NC(=O)[C@@H](NC(=O)CNC(=O)[C@H](CCC(=O)O)NC(=O)[C@H](C)NC(=O)[C@@H](N)Cc1ccc(O)cc1)[C@@H](C)O)[C@@H](C)CC)C(=O)N[C@@H](C)C(=O)N[C@@H](CCSC)C(=O)N[C@@H](CC(=O)O)C(=O)N[C@@H](CCCCN)C(=O)N[C@H](C(=O)N[C@@H](CCCNC(=N)N)C(=O)N[C@@H](CCC(N)=O)C(=O)N[C@@H](CCC(N)=O)C(=O)N[C@@H](CC(=O)O)C(=O)N[C@@H](Cc1ccccc1)C(=O)N[C@H](C(=O)N[C@@H](CC(N)=O)C(=O)N[C@@H](Cc1c[nH]c2ccccc12)C(=O)N[C@@H](CC(C)C)C(=O)N[C@@H](CC(C)C)C(=O)N[C@@H](C)C(=O)N[C@@H](CCC(N)=O)C(=O)N[C@@H](CCCNC(=N)N)C(=O)NCC(=O)N[C@@H](CCCCN)C(=O)N[C@@H](CCCCN)C(=O)N[C@@H](CO)C(=O)N[C@@H](CC(=O)O)C(=O)N[C@@H](Cc1c[nH]c2ccccc12)C(=O)N[C@@H](CCCCN)C(=O)N[C@@H](Cc1c[nH]cn1)C(=O)N[C@@H](CC(N)=O)C(=O)N[C@H](C(=O)N[C@H](C(=O)N[C@@H](CCC(N)=O)C(N)=O)[C@@H](C)O)[C@@H](C)CC)C(C)C)[C@@H](C)CC [mGIP],Emax,"mouse GIP receptor [7]; mGIPR GTPgS, run of 2019-06-25",98.5%
same,Emax,"mouse GIP receptor [7]; mGIPR GTPgS, run of 2022-05-11",98.7%
same,Emax,"mouse GIP receptor [7]; mGIPR GTPgS, run of 2022-05-12",98%
same,Emax,"mouse GIP receptor [7]; mGIPR GTPgS, run of 2022-06-16",101%
same,Emax,"mouse GIP receptor [7]; mGIPR GTPgS, run of 2022-06-21",102%
same,Emax,"mouse GIP receptor [7]; read-out: [35S]GTPγS binding Emax, mouse GIPR, membranes, 30 min room temperature, mean (s.e.m., n)",98.9%
same,Emax,mouse GIP receptor [2],100%
same,Emax,mouse GIP receptor [5],103%
